The target of data set [1] is T1, human CB2R (Homo sapiens, UniProt P34972).
T1 construct: The coding region of human CB2R cDNA; expressed in transfected cells
The data set can be described thus: CB2R-mediated suppression of forskolin-stimulated cAMP synthesis (agonistic activity), CHO cells expressing human CB2R. It is filed as cell-based. How it is done:
After the incubation, 4 μM forskolin (Sigma) was added and the cells were incubated for 20 min at 37° C. The reaction was stopped by the addition of 1N HCl and the amount of cAMP in the cell supernatant was measured using an EIA kit (Amersham Pharmacia Biotech) according to the manufacture's protocol.

Data set [2] has as its target T1, human CB2R. Description: Human CB2 receptor (CB2R) binding inhibition, [3H]CP55940, membranes of CB2R-expressing CHO cells. How it is done: The prepared vector was transfected into Chinese Hamster Ovary (CHO) cells with LipofectAMINE reagent (Gibco BRL) according to the manufacture's protocol, and the stable CB2R-expressing clones were selected.
(§1) The crude membrane fractions were then prepared from the CB2R-expressing CHO cells. Receptor binding assay was performed by incubating the membranes with each test compound and [^3H]CP55940 (at a final concentration of 0.5 nM: NEN Life Science Products) in the assay buffer (50 mM Tris-HCl, 1 mM EDTA, 3 mM MgCl2, pH 7.4) containing 0.5% bovine serum albumin (BSA) for 2 hr at 25° C. The incubation mixture was filtered through 1% polyethylenimine (PEI)-treated GF/C glass filter and washed with 50 mM Tris-HCl (pH 7.4) containing 0.1% BSA. The radioactivity was then counted with a liquid scintillation counter.
(§2) For the receptor binding assay of human CB1 receptor (CB1R), the stable CB1R-expressing CHO cells were prepared as described above, and the binding assay was performed with their membrane fractions. As a consequence of these studies, the Ki values of each test compound for both cannabinoid receptors were determined, which were presented in Table 89.

In data set [3] the target is T2, human CB1 receptor (CB1R) (Homo sapiens, UniProt P21554).
T2 construct: expressed in transfected cells
T2 sequence (P21554 whole entry): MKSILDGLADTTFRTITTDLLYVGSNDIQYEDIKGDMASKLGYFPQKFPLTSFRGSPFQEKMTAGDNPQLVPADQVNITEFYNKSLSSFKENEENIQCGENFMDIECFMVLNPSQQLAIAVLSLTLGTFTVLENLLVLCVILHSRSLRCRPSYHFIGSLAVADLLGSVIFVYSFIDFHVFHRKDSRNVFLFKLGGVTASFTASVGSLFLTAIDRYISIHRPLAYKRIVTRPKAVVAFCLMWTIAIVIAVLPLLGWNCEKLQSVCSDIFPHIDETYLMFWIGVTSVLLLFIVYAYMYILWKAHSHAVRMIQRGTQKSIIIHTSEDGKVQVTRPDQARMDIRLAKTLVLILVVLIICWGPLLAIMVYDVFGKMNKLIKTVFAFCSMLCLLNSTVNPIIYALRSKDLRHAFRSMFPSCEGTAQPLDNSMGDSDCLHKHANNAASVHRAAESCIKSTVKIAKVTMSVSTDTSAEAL
Description: Receptor binding assay of human CB1 receptor (CB1R), membranes of CB1R-expressing CHO cells. How it is done: as §1, §2

The subject of data set [4] is SRBC-induced DTH reaction. Description: Sheep red blood cell (SRBC)-induced delayed type hypersensitive (DTH) reaction, foot pad swelling. Format: in vivo. Particulars: female ddY mice, measured after 24 hrs. The method, then:
Female ddY mice (7 weeks old) were used for the sheep red blood cell (SRBC)-induced delayed type hypersensitive (DTH) reaction.
Cannabinoid receptor agonist, I-6, I-60, I-77 and I-118 were suspended in 0.6% arabic gum solution. Mice were sensitized by the intradermal injection of 10^7 cells of SRBC (40 μl/foot) into the left hind foot pad. After 5 days, DTH reaction was induced by the intradermal injection of 10^8 cells of SRBC in the right hind foot pad. Test compounds were administerd p.o. (10 ml/kg) 1 hr before and 5 hr after the induction of DTH reaction. After 24 hrs of the injection of SRBC, the left and right foot pad volumes were measured by the water displacement method. The foot pad swelling was calculated as the differences in the volumes between the right and left hind foot pad, and used as an index of the DTH reaction.
Data are expressed as the inhibition percentage of each compound. Statistical analysis was performed with Welch's t-test, in which the value of P<0.05 is considered as a significant difference.

[5] abbreviates: dose 30 mg/kg p.o. 1 hr before and 5 hr after induction.

Where two headings read alike, the source gives them in different places.

T1 sequence (P34972 whole entry): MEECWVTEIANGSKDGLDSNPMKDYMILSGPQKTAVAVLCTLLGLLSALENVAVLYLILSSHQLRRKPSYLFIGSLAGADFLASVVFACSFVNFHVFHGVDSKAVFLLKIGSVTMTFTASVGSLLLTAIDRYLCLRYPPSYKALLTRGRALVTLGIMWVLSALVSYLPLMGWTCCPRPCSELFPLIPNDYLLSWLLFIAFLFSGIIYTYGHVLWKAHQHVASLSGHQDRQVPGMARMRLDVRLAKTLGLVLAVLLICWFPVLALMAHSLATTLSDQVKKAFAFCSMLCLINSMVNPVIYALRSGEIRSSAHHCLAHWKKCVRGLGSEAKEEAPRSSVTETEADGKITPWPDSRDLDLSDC

A word on the IC50: it is the concentration that inhibits the measured activity by half. The term Ki denotes a measure of affinity in units of concentration, obtained from inhibition or displacement. Higher therefore signals lower affinity. As usually defined, the melting point is the temperature of the solid-liquid transition. The compound `CSC(=S)N1CC(C)(C)CSC1=Nc1ccccc1C(C)C` [Compound I-5, 2-(2-isopropylphenyl)imino-3-(methylthio)thiocarbonyl-5,5-dimethyl-1,3-thiazine] returned a melting point of 77 to 79 °C. The same compound had an IC50 at human CB2R [1] of 0.0065 µM. For the same compound, affinity on human CB2R [2] was put at a Ki of 0.061 µM. Besides, the Ki in data set [3] is > 5 µM. `CCOC(=O)N1CC(C)(C)CSC1=Nc1ccccc1C(C)C` returned a melting point of 84 to 86 °C. With `CSC(=S)N1CC(C)(C)CSC1=Nc1ccc(C)c(C)c1` [Compound I-74], at human CB2R [2], the Ki worked out at 0.048 µM. For `CCOc1ccc(/N=C2\SCC(C)(C)CN2C(=O)OC)cc1OCC`, the melting point fell in the range of 75 to 76 °C.

Turning to `COc1ccccc1N=C1SCC(C)(C)CN1C(=S)SC` [Compound I-60], the “Inhibition percentage (foot pad swelling, DTH reaction)” value (“Inhibition percentage” for short) in data set [4] (setting [5]) was 31.1%. Also, the figures for the Ki (on human CB2R [2]; in data set [3]) were 0.018 µM and 2.1 µM, respectively.

`CSC(=S)N1CC(C)(C)CSC1=Nc1cccc(C(C)C)c1` [Compound I-69]: at human CB2R [2], the affinity, expressed as Ki, was 0.033 µM.

In the case of `CSC(=S)N1CC(C)(C)CSC1=Nc1ccccc1SC` [Compound I-62], on human CB2R [2], the Ki was 0.044 µM. This Ki and that of the compound before are within 1.5-fold of each other. For the compound `COc1ccc(N=C2SCC(C)(C)CN2C(=S)SC)cc1OC` [Compound I-77], the “Inhibition percentage” value in data set [4] (setting [5]) is 33.8%. For the same compound, the affinity on human CB2R [2], expressed as Ki, was 0.053 µM.

At human CB2R [1], `CCSC(=O)N1CC(C)(C)CSC1=Nc1ccccc1C(C)CC` (stereo not drawn) [Compound I-23] gave an IC50 of 0.0026 µM. Also, the Ki on human CB2R [2] was 0.029 µM; in data set [3], > 5 µM. Compound `CCC(C)c1ccccc1N=C1SCC(C)(C)CN1C(=O)SC` (stereo not drawn) [Compound I-51] came in with an IC50 at human CB2R [1] of 0.0028 µM. This compound registered a Ki on human CB2R [2] of 0.023 µM. `CCSC(=S)N1CC(C)(C)CSC1=Nc1ccccc1C(C)C` [Compound I-84]: the results for the Ki (at human CB2R [2]; in data set [3]) were 0.035 µM and > 5 µM, respectively. On human CB2R [1], `CCC(C)c1ccccc1N=C1SCC(C)(C)CN1C(=S)SC` (stereo not drawn) [Compound I-57] displayed an IC50 of 0.0055 µM. The Ki stood at 0.006 µM at human CB2R [2] and 4.13 µM in data set [3]. Take `CCSC(=S)N1CC(C)(C)CSC1=Nc1ccccc1C(C)CC` (stereo not drawn) [Compound I-85]: at human CB2R [2], the Ki was 0.025 µM.

Turning to `CCc1ccccc1N=C1SCC(C)(C)CN1C(=S)SC` [Compound I-56], the inhibition constant (Ki) on human CB2R [2] is 0.054 µM. This Ki lies about 2.2-fold higher than the previous one.

The compound `CSC(=O)N1CC(C)(C)CSC1=Nc1cccc(C(C)C)c1` [Compound I-52] came in with a Ki at human CB2R [2] of 0.035 µM. The compound `CCSC(=O)N1CCSC1=Nc1ccccc1C(C)C` [Compound I-6, 3-(ethylthiocarbonyl)-2-(2-isopropylphenyl)imino-1,3-thiazolidine] showed a melting point of 79 to 81 °C. Further, the IC50 at human CB2R [1] (CHO cells expressing human CB2R, 4 μM forskolin, read-out: IC50 (inhibition of forskolin-stimulated cAMP synthesis)) is 0.0027 µM. Also, in data set [4] (dose 40 mg/kg p.o. 1 hr before and 5 hr after induction), the “Inhibition percentage” value is given as 45.2%. Moreover, the affinity at human CB2R [2], expressed as Ki, was 0.009 µM. As to `CSC(=O)N1CC(C)(C)CSC1=Nc1ccccc1C(C)C` [Compound I-50], the Ki on human CB2R [2] was 0.039 µM; in data set [3], > 5 µM.

Source of the values: patent US6818640B1, “2-imino-1,3-thiazine derivatives” (Shionogi & Co., Ltd., priority 1999, dated 2004).
